The text below walks through data of PMC8674143, “Accuracy mechanism of eukaryotic ribosome translocation” (Nature, 2021).

The test concerns the target T1, eEF2 (Saccharomyces cerevisiae, UniProt P32324).
T1 construct: gene EFT1; native full-length eEF2 purified from yeast, diphthamide at residue 699
Nature of the test: X-ray crystallography, […] Å. It counts as binding. The note with it: on the 80S ribosome with mRNA, Phe-tRNAPhe and fMet-tRNAfMet; GTP pocket of G domain, next to sarcin-ricin loop; Mg2+; 0.25 mM ligand.

T1 sequence (P32324 whole entry): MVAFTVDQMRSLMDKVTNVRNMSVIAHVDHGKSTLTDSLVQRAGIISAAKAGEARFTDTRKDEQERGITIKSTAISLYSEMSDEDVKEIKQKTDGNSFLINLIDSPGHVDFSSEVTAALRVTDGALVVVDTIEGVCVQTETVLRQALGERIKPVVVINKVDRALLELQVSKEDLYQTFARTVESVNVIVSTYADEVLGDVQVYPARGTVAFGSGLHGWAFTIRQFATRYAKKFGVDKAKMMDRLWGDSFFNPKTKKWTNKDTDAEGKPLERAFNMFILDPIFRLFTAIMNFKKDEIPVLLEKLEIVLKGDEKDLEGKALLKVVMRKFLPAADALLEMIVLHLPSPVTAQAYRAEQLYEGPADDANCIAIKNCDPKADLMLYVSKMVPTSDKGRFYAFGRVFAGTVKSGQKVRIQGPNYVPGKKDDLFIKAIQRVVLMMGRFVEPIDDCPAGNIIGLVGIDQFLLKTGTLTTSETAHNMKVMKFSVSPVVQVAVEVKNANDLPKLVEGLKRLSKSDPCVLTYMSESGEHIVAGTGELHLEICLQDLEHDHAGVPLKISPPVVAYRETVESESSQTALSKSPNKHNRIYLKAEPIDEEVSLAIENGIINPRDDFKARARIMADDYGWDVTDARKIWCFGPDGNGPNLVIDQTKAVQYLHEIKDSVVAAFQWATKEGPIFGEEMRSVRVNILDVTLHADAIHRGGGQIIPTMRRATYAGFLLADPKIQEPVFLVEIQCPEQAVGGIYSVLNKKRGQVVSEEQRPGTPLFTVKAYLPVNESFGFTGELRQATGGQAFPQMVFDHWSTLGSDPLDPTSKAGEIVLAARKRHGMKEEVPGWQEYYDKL

Consider `Nc1nc2c(ncn2[C@@H]2O[C@H](COP(=O)(O)OP(=O)(O)CP(=O)(O)O)[C@@H](O)[C@H]2O)c(=O)[nH]1` [GMPPCP], for which the “X-ray crystallography, 3.2 Å” value is “native S. cerevisiae eEF2, the nonhydrolyzable GTP analogue GMPPCP, mRNA and two tRNAs”.
